Here are results for five molecules from patent US9474790B2, “Stable, protracted GLP-1/glucagon receptor co-agonists for medical use” (Novo Nordisk A/S, priority 2013, dated 2016).

For orientation: IC50 means the midpoint of a concentration-inhibition curve.

For the assay, the target named is T1, human GLP-1 receptor (Homo sapiens, UniProt P43220).
T1 construct: expressed in transfected cells; host or cells: BHK cells (parent BHKTS13), clone FCW467-12A/KZ10-1, with CRE luciferase
Kind of assay: GLP-1 receptor binding, 125I-GLP-1 displacement SPA on isolated membranes. The note with it: displacement of 125I-GLP-1 from membranes; read-out: IC50 GLP-1R. The essentials: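 SPA displacement of 125I-GLP-1(7-36)NH2 from membranes of BHK cells expressing human GLP-1 receptor, with WGA beads, in 50 mM HEPES, 5 mM EGTA, 5 mM MgCl2, 0.005% Tween 20, pH 7.4. Incubated 2 h at 30°C; IC50 by non-linear regression, run at ≤0.001% or 2.0% final serum albumin.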
(Displacement assays read how much labelled ligand stays bound in the presence of the test substance.)

Molecules are shown by their SMILES. Numbered stars: 1 amine (or outer) side, 2 acyl side, 3 side chain; on linkers, the order of the positions; unused ones are H or OH. Bridge positions count the residues as written; N and C are the ends. Square brackets hold non-standard residues; d marks the D form. Side chains are listed from the residue outwards. Peptide text beside a SMILES is read from it. I, II: the chains in the order shown. * marks the point of attachment. C18 diacid = O=C(O)CCCCCCCCCCCCCCCCC(=O)*; γGlu = O=C(O)[C@H](CCC(=O)[*:2])N[*:1]; Ac4c = NC1(C(=O)O)CCC1; AEEA = NCCOCCOCC(=O)O; Aib = CC(C)(N)C(=O)O

T1 sequence (P43220 24-463): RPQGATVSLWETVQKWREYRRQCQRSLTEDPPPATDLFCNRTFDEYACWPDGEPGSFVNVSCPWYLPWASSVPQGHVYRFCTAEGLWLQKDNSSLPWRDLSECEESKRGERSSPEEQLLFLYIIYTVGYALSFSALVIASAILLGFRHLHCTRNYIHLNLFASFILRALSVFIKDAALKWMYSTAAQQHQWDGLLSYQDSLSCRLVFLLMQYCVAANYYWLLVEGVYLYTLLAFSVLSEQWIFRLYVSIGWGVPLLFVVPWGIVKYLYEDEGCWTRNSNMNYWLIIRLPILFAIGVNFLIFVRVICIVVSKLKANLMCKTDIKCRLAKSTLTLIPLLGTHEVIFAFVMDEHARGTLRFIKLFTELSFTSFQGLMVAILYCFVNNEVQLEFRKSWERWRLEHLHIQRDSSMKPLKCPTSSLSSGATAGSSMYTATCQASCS

Turning to `CC(C)C[C@H](NC(=O)[C@H](CC(C)C)NC(=O)[C@H](Cc1c[nH]c2ccccc12)NC(=O)[C@H](CCC(N)=O)NC(=O)[C@@H](NC(=O)[C@H](Cc1ccccc1)NC(=O)[C@H](CCC(=O)O)NC(=O)[C@H](CCC(N)=O)NC(=O)[C@H](C)NC(=O)[C@H](C)NC(=O)[C@H](CCCCN)NC(=O)[C@H](CO)NC(=O)[C@H](CC(=O)O)NC(=O)[C@H](CC(C)C)NC(=O)[C@H](Cc1ccc(O)cc1)NC(=O)[C@H](CCCCN)NC(=O)[C@H](CO)NC(=O)[C@H](CC(C)C)NC(=O)[C@H](CC(=O)O)NC(=O)[C@H](CO)NC(=O)[C@@H](NC(=O)[C@H](Cc1ccccc1)NC(=O)[C@@H](NC(=O)CNC(=O)[C@H](CCC(N)=O)NC(=O)C(C)(C)NC(=O)[C@@H](N)Cc1c[nH]cn1)[C@@H](C)O)[C@@H](C)O)C(C)C)C(=O)N[C@@H](CC(N)=O)C(=O)N[C@@H](CCCCNC(=O)CC[C@H](NC(=O)CC[C@H](NC(=O)COCCOCCNC(=O)COCCOCCNC(=O)CC[C@H](NC(=O)CCCCCCCCCCCCCCCCC(=O)O)C(=O)O)C(=O)O)C(=O)O)C(N)=O` [Example 8, N^ε29-[(4S)-4-carboxy-4-[[(4S)-4-carboxy-4-[[2-[2-[2-[[2-[2-[2-[[(4S)-4-carboxy-4-(17-carboxyheptadecanoylamino)butanoyl]amino]ethoxy]ethoxy]acetyl]amino]ethoxy]ethoxy]acetyl]amino]butanoyl]amino]butanoyl]-[Aib2,Leu10,Lys17,Ala18,Glu21,Leu27,Lys29]-Glucagon amide] (H-H[Aib]QGTFTSDLSKYLDSKAAQEFVQWLLNK([γGlu-γGlu-AEEA-AEEA-γGlu-C18 diacid])-NH2; N-terminus assumed), the IC50 turned out to be 1.1 nM. The result for `CC(C)C[C@H](NC(=O)[C@H](Cc1ccc(O)cc1)NC(=O)[C@H](CCCCN)NC(=O)[C@H](CO)NC(=O)[C@H](CC(C)C)NC(=O)[C@H](CC(=O)O)NC(=O)[C@H](CO)NC(=O)[C@@H](NC(=O)[C@H](Cc1ccccc1)NC(=O)[C@@H](NC(=O)CNC(=O)[C@H](CCC(N)=O)NC(=O)C(C)(C)NC(=O)[C@@H](N)Cc1c[nH]cn1)[C@@H](C)O)[C@@H](C)O)C(=O)N[C@@H](CC(=O)O)C(=O)N[C@@H](CCCCNC(=O)CC[C@H](NC(=O)CC[C@H](NC(=O)COCCOCCNC(=O)COCCOCCNC(=O)CC[C@H](NC(=O)CCCCCCCCCCCCCCCCC(=O)O)C(=O)O)C(=O)O)C(=O)O)C(=O)N[C@@H](CCCNC(=N)N)C(=O)N[C@@H](CCCNC(=N)N)C(=O)N[C@@H](C)C(=O)N[C@@H](CCCNC(=N)N)C(=O)N[C@@H](CCC(=O)O)C(=O)N[C@@H](Cc1ccccc1)C(=O)N[C@H](C(=O)N[C@@H](CCC(N)=O)C(=O)N[C@@H](Cc1c[nH]c2ccccc12)C(=O)N[C@@H](CC(C)C)C(=O)N[C@@H](CC(C)C)C(=O)N[C@@H](CC(N)=O)C(=O)N[C@H](C(N)=O)[C@@H](C)O)C(C)C` [Example 10, N^ε16-[(4S)-4-carboxy-4-[[(4S)-4-carboxy-4-[[2-[2-[2-[[2-[2-[2-[[(4S)-4-carboxy-4-(17-carboxyheptadecanoylamino)butanoyl]amino]ethoxy]ethoxy]acetyl]amino]ethoxy]ethoxy]acetyl]amino]butanoyl]amino]butanoyl]-[Aib2,Leu10,Lys16,Arg20,Glu21,Leu27]-Glucagon amide] (H-H[Aib]QGTFTSDLSKYLDK([γGlu-γGlu-AEEA-AEEA-γGlu-C18 diacid])RRAREFVQWLLNT-NH2; N-terminus assumed) reads 0.5 nM; that for `CC(C)C[C@H](NC(=O)[C@H](CC(C)C)NC(=O)[C@H](Cc1c[nH]c2ccccc12)NC(=O)[C@H](CCC(N)=O)NC(=O)[C@@H](NC(=O)[C@H](Cc1ccccc1)NC(=O)[C@H](CCC(=O)O)NC(=O)[C@H](CCCNC(=N)N)NC(=O)[C@H](C)NC(=O)[C@H](CCCNC(=N)N)NC(=O)[C@H](CCCNC(=N)N)NC(=O)[C@H](CO)NC(=O)[C@H](CC(=O)O)NC(=O)[C@H](CC(C)C)NC(=O)[C@H](Cc1ccc(O)cc1)NC(=O)[C@H](CCCCN)NC(=O)[C@H](CO)NC(=O)[C@H](CC(C)C)NC(=O)[C@H](CC(=O)O)NC(=O)[C@H](CO)NC(=O)[C@@H](NC(=O)[C@H](Cc1ccccc1)NC(=O)[C@@H](NC(=O)CNC(=O)[C@H](CCC(N)=O)NC(=O)C(C)(C)NC(=O)[C@@H](N)Cc1c[nH]cn1)[C@@H](C)O)[C@@H](C)O)C(C)C)C(=O)N[C@@H](CC(N)=O)C(=O)N[C@@H](CCCCNC(=O)CC[C@H](NC(=O)CC[C@H](NC(=O)COCCOCCNC(=O)COCCOCCNC(=O)CC[C@H](NC(=O)CCCCCCCCCCCCCCCCC(=O)O)C(=O)O)C(=O)O)C(=O)O)C(N)=O` [Example 12, N^ε29-[(4S)-4-carboxy-4-[[(4S)-4-carboxy-4-[[2-[2-[2-[[2-[2-[2-[[(4S)-4-carboxy-4-(17-carboxyheptadecanoylamino)butanoyl]amino]ethoxy]ethoxy]acetyl]amino]ethoxy]ethoxy]acetyl]amino]butanoyl]amino]butanoyl]-[Aib2,Leu10,Arg20,Glu21,Leu27,Lys29]-Glucagon amide] (H-H[Aib]QGTFTSDLSKYLDSRRAREFVQWLLNK([γGlu-γGlu-AEEA-AEEA-γGlu-C18 diacid])-NH2), 0.5 nM. The result for `CC(C)C[C@H](NC(=O)[C@H](Cc1ccc(O)cc1)NC(=O)[C@H](CCCCN)NC(=O)[C@H](CO)NC(=O)[C@H](CC(C)C)NC(=O)[C@H](CC(=O)O)NC(=O)[C@H](CO)NC(=O)[C@@H](NC(=O)[C@H](Cc1ccccc1)NC(=O)[C@@H](NC(=O)CNC(=O)[C@H](CCC(N)=O)NC(=O)C1(NC(=O)[C@@H](N)Cc2c[nH]cn2)CCC1)[C@@H](C)O)[C@@H](C)O)C(=O)N[C@@H](CCC(=O)O)C(=O)N[C@@H](CCC(=O)O)C(=O)N[C@@H](CCCNC(=N)N)C(=O)N[C@@H](CCCNC(=N)N)C(=O)N[C@@H](C)C(=O)N[C@@H](CCCNC(=N)N)C(=O)N[C@@H](CC(=O)O)C(=O)N[C@@H](Cc1ccccc1)C(=O)N[C@H](C(=O)N[C@@H](CCC(N)=O)C(=O)N[C@@H](Cc1c[nH]c2ccccc12)C(=O)N[C@@H](CC(C)C)C(=O)N[C@@H](CC(C)C)C(=O)N[C@@H](CCCCNC(=O)CNC(=O)[C@H](CO)NC(=O)[C@H](CCC(=O)O)NC(=O)CNC(=O)[C@H](CO)NC(=O)CC[C@H](NC(=O)CC[C@H](NC(=O)CCCCCCCCCCCCCCCCC(=O)O)C(=O)O)C(=O)O)C(=O)N[C@H](C(N)=O)[C@@H](C)O)C(C)C` [Example 16, N^ε28-[2-[[(2S)-2-[[(2S)-4-carboxy-2-[[2-[[(2S)-2-[[(4S)-4-carboxy-4-[[(4S)-4-carboxy-4-(17-carboxyheptadecanoylamino)butanoyl]amino]butanoyl]amino]-3-hydroxypropanoyl]amino]acetyl]amino]butanoyl]amino]-3-hydroxypropanoyl]amino]acetyl]-[Acb2,Leu10,Glu15,Glu16,Arg20,Leu27,Lys28]-Glucagon amide] (I: H-H[Ac4c]QGTFTSDLSKYLEERRARDFVQWLLKT-NH2 / II: {C18 diacid-γGlu-γGlu}-SGESG; amide I:28-II:C; N-terminus assumed) reads 0.2 nM.

Turning to `CC(C)C[C@H](NC(=O)[C@H](Cc1c[nH]c2ccccc12)NC(=O)[C@H](C)NC(=O)[C@@H](NC(=O)[C@H](Cc1ccccc1)NC(=O)[C@H](CCC(=O)O)NC(=O)[C@H](CCCNC(=N)N)NC(=O)[C@H](C)NC(=O)[C@H](CCCNC(=N)N)NC(=O)[C@H](CCCNC(=N)N)NC(=O)[C@H](CCCCNC(=O)CC[C@H](NC(=O)COCCOCCNC(=O)COCCOCCNC(=O)CC[C@H](NC(=O)CC[C@H](NC(=O)CCCCCCCCCCCCCCCCC(=O)O)C(=O)O)C(=O)O)C(=O)O)NC(=O)[C@H](CC(=O)O)NC(=O)[C@H](CC(C)C)NC(=O)[C@H](Cc1ccc(O)cc1)NC(=O)[C@H](CCCCN)NC(=O)[C@H](CO)NC(=O)[C@H](CC(C)C)NC(=O)[C@H](CC(=O)O)NC(=O)[C@H](CO)NC(=O)[C@@H](NC(=O)[C@H](Cc1ccccc1)NC(=O)[C@@H](NC(=O)CNC(=O)[C@H](CCC(N)=O)NC(=O)C(C)(C)NC(=O)[C@@H](N)Cc1c[nH]cn1)[C@@H](C)O)[C@@H](C)O)C(C)C)C(=O)N[C@@H](CC(C)C)C(=O)N[C@@H](CC(N)=O)C(=O)N[C@H](C(N)=O)[C@@H](C)O` [Example 19, N^ε29-[(4S)-4-carboxy-4-[[2-[2-[2-[[2-[2-[2-[[(4S)-4-carboxy-4-[[(4S)-4-carboxy-4-(17-carboxyheptadecanoylamino)butanoyl]amino]butanoyl]amino]ethoxy]ethoxy]acetyl]amino]ethoxy]ethoxy]acetyl]amino]butanoyl]-[Aib2,Leu10,Lys16,Arg20,Glu21,Ala24,Leu27]-Glucagon amide] (H-H[Aib]QGTFTSDLSKYLDK([γGlu-AEEA-AEEA-γGlu-γGlu-C18 diacid])RRAREFVAWLLNT-NH2; N-terminus assumed), the concentration for half-maximal inhibition (IC50) was determined as 0.9 nM.
